According to PMC9186362, “Design and biological evaluation of substituted 5,7-dihydro-6H-indolo[2,3-c]quinolin-6-one as novel selective Haspin inhibitors” (Journal of Enzyme Inhibition and Medicinal Chemistry, 2022):

Columns and labels:
MmCLK1 = MmCLK1 (Mus musculus, UniProt P22518); experiment: ADP-Glo kinase assay; format: biochemical, Mus musculus (Mm); settings: for remaining activity at 1 µM: mean n = 2, % of maximum activity of DMSO control, read-out: % Residual activity at 1 μM CLK1; for Selectivity index CLK1/Haspin: IC50 CLK1/IC50 Haspin; for IC50: dose-response curve, each point in duplicate, read-out: Kinase inhibition (IC50) CLK1
Procedure: (§1) Kinase activities were determined using the ADP-Glo methodology (ADP-Glo Kinase Assay; Promega) according to the assay described by Nguyen et al.[32] except for MmCLK1. The later was assayed in the following buffer: 10 mM MgCl2, 1 mM EGTA, 1 mM DTT, 25 mM Tris-HCl pH 7.5, 50 µg/ml heparin, 0.15 mg/ml BSA, with 0.027 µg/µl of the following peptide: GRSRSRSRSRSR as substrate.

HsGSK3β = HsGSK3β (Homo sapiens, UniProt P49841); experiment: ADP-Glo kinase assay; format: biochemical, Homo sapiens (Hs); settings: mean n = 2, % of maximum activity of DMSO control, read-out: % Residual activity at 1 μM GSK3β
Procedure: as §1

HsCdk9/Cyc E = HsCdk9/Cyc E (Homo sapiens, UniProt P50750); experiment: ADP-Glo kinase assay; format: biochemical, Homo sapiens (Hs); settings: mean n = 2, % of maximum activity of DMSO control, read-out: % Residual activity at 1 μM CDK9
Procedure: as §1

HsCdk5/p25 = HsCdk5/p25 (Homo sapiens, UniProt Q00535); experiment: ADP-Glo kinase assay; format: biochemical, Homo sapiens (Hs); settings: mean n = 2, % of maximum activity of DMSO control, read-out: % Residual activity at 1 μM CDK5
Procedure: as §1

HsHaspin = biological target: T1, HsHaspin (Homo sapiens, UniProt Q8TF76); experiment: ADP-Glo kinase assay; format: biochemical, Homo sapiens (Hs); settings: for remaining activity at 1 µM: mean n = 2, % of maximum activity of DMSO control, read-out: % Residual activity at 1 μM Haspin; for IC50: dose-response curve, each point in duplicate, read-out: Kinase inhibition (IC50) Haspin
T1 sequence (Q8TF76 1-798): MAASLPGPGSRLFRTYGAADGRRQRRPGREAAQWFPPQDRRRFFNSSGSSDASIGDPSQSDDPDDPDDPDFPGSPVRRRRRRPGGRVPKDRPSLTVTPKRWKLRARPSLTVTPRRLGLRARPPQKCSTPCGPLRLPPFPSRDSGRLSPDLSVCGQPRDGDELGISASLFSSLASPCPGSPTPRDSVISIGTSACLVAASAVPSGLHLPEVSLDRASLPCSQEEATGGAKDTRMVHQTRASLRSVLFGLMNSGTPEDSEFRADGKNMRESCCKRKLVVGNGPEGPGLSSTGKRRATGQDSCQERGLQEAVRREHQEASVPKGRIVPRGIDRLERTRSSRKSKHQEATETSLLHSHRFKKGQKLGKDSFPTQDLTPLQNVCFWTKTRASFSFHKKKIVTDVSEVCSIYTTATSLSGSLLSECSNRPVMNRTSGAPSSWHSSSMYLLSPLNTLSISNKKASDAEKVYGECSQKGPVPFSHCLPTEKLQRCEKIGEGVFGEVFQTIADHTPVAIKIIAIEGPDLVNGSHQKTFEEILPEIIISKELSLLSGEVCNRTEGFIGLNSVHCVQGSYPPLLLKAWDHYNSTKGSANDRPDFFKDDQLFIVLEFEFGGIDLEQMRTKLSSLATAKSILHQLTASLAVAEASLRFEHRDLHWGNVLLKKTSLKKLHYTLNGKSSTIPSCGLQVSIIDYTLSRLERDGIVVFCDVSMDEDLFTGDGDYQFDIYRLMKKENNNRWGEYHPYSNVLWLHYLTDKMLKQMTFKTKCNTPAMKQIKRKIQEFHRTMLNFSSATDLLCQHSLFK
Procedure: as §1

HsPIM1 = HsPIM1 (Homo sapiens, UniProt P11309); experiment: ADP-Glo kinase assay; format: biochemical, Homo sapiens (Hs); settings: mean n = 2, % of maximum activity of DMSO control, read-out: % Residual activity at 1 μM PIM1
Procedure: as §1

HsCdk2/Cyc A = HsCdk2/Cyc A (Homo sapiens, UniProt P24941); experiment: ADP-Glo kinase assay; format: biochemical, Homo sapiens (Hs); settings: mean n = 2, % of maximum activity of DMSO control, read-out: % Residual activity at 1 μM CDK2
Procedure: as §1

RnDYRK1A = RnDYRK1A (Rattus norvegicus, UniProt Q63470); experiment: ADP-Glo kinase assay; format: biochemical, Rattus norvegicus (Rn); settings: for remaining activity: mean n = 2, % of maximum activity of DMSO control, read-out: % Residual activity at 1 μM DYRK1A; for Selectivity index DYRK/Haspin: IC50 DYRK1A/IC50 Haspin; for IC50: dose-response curve, each point in duplicate, read-out: Kinase inhibition (IC50) DYRK1A
Procedure: as §1

Chain of HsCdk5/p25 (Q00535 whole entry): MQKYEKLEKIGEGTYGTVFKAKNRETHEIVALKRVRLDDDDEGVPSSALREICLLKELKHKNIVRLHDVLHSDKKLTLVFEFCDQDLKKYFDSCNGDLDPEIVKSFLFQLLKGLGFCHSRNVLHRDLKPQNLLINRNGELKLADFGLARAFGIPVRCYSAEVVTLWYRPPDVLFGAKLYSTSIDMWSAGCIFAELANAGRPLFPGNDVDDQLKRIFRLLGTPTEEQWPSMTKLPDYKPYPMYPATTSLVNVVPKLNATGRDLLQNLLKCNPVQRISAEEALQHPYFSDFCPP
Chain of HsCdk5/p25 (Q15078 99-307 partner limits assumed): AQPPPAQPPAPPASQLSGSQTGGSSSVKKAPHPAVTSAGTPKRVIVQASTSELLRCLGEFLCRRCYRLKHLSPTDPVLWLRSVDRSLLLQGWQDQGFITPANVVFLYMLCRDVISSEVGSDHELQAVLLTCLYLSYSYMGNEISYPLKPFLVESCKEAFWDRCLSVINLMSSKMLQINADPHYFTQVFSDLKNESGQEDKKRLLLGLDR
Chain of HsGSK3β (P49841 whole entry): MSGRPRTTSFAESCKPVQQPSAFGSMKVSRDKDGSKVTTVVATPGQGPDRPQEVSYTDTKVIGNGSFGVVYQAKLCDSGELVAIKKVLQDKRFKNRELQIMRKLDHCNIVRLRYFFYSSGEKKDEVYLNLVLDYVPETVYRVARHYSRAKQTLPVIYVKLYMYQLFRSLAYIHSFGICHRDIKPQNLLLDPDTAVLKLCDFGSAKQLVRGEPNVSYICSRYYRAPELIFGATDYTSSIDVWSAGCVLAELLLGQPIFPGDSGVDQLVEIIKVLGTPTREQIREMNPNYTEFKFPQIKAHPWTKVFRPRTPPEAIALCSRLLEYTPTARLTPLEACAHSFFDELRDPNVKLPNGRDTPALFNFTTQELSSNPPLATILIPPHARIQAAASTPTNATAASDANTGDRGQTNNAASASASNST
Chain of HsPIM1 (P11309 whole entry): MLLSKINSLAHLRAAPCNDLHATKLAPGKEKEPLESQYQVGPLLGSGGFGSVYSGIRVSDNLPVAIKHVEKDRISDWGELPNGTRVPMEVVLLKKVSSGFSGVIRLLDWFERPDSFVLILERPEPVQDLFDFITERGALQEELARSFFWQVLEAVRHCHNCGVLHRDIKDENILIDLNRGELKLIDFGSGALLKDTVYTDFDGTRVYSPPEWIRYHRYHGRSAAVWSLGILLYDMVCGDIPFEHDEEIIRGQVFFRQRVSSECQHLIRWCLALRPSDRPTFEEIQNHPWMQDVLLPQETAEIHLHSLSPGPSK
Chain of HsCdk9/Cyc E (P50750 whole entry): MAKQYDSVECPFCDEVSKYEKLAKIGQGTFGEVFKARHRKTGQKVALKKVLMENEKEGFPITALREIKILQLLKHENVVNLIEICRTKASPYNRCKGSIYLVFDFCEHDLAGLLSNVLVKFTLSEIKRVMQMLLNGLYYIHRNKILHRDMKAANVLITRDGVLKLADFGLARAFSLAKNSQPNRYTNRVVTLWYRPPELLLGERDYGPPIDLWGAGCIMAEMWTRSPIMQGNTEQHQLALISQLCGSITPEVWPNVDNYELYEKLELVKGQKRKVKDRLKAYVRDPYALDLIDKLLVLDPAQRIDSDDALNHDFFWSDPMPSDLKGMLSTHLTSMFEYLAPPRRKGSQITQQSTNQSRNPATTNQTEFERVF
Chain of HsCdk9/Cyc E (O60563 whole entry partner): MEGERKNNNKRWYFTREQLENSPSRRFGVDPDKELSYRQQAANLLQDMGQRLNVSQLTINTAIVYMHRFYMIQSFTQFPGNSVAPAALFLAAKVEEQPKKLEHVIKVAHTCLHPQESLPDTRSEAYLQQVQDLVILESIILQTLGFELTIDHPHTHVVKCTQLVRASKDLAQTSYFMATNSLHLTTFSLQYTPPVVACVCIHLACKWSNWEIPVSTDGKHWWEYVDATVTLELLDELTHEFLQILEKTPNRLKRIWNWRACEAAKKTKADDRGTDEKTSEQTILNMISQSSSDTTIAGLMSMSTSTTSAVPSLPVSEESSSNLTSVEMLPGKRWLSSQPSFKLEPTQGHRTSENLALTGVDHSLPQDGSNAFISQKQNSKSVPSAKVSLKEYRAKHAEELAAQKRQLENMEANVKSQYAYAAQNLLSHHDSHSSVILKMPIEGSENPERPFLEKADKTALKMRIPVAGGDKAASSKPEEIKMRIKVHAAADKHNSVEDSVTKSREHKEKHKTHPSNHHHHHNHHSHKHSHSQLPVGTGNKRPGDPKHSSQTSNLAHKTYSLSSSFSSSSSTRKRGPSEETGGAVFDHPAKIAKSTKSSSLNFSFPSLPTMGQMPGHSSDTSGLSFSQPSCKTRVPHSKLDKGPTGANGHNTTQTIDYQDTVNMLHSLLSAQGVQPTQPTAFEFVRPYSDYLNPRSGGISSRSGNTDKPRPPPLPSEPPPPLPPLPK
Chain of MmCLK1 (P22518 whole entry): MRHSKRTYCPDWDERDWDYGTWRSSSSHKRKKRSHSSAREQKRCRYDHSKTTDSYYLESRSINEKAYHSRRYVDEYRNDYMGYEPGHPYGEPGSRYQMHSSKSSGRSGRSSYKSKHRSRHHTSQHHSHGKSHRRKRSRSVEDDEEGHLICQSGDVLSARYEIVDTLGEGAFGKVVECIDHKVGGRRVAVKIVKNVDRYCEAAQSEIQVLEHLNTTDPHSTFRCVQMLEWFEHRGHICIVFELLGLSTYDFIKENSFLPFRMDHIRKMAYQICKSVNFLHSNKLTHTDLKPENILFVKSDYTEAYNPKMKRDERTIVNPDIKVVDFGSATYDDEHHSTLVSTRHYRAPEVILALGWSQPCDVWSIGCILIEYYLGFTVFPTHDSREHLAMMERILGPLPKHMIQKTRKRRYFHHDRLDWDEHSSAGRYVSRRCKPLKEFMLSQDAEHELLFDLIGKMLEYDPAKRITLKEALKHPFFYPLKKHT

| SMILES | remaining activity at 1 µM (MmCLK1) | remaining activity at 1 µM (HsGSK3β) | remaining activity at 1 µM (HsCdk9/Cyc E) | remaining activity at 1 µM (HsCdk5/p25) | remaining activity at 1 µM (HsHaspin) | remaining activity at 1 µM (HsPIM1) | remaining activity at 1 µM (HsCdk2/Cyc A) | remaining activity (RnDYRK1A) | melting point | Selectivity index CLK1/Haspin (MmCLK1) | IC50 (MmCLK1) | IC50 (HsHaspin) | Selectivity index DYRK/Haspin (RnDYRK1A) | IC50 (RnDYRK1A) |
| --- | --- | --- | --- | --- | --- | --- | --- | --- | --- | --- | --- | --- | --- | --- |
| O=c1[nH]c2ccccc2c2c1[nH]c1ccccc12 [Compound 45, 5,7-Dihydro-6H-indolo[2,3-c]quinolin-6-one] | 67% | 100% | 63% | 100% | 44% | 86% | 100% | 61% |  |  |  |  |  |  |
| O=c1[nH]c2cc(O)ccc2c2c1[nH]c1ccccc12 [Compound 47, 3-Hydroxy-5,7-dihydro-6H-indolo[2,3-c]quinolin-6-one] | 22% | 47% | 20% | 59% | 28% | 37% | 61% | 33% | 238 to 240 °C (dec.) |  |  |  |  |  |
| COc1ccc2[nH]c3c(=O)[nH]c4cc(OC)c(OC)cc4c3c2c1 [Compound 52, 2,3,10-Trimethoxy-5,7-dihydro-6H-indolo[2,3-c]quinolin-6-one] | 1% | 22% | 37% | 63% | 2% | 29% | 58% | 5% | 205 to 208 °C | 5 | 78 nM | 16 nM | 15 | 242 nM |
| COc1ccc2[nH]c3c(=O)[nH]c4ccc(C(F)(F)F)cc4c3c2c1 [Compound 53, 10-Methoxy-2-(trifluoromethyl)-5,7-dihydro-6H-indolo[2,3-c]quinolin-6-one] | 11% | 63% | 56% | 56% | 33% | 31% | 76% | 36% | 241 to 244 °C |  |  |  |  |  |
| COc1ccc2[nH]c3c(=O)[nH]c4ccc(NC(C)=O)cc4c3c2c1 [Compound 57, N-(10-Methoxy-6-oxo-6,7-dihydro-5H-indolo[2,3-c]quinolin-2-yl)acetamide] | 2% | 58% | 72% | 100% | 3% | 37% | 100% | 10% | 242 to 245 °C | 8 | 259 nM | 34 nM | 8 | 280 nM |

Next, values leading:

| remaining activity at 1 µM (MmCLK1) | remaining activity at 1 µM (HsGSK3β) | remaining activity at 1 µM (HsCdk9/Cyc E) | remaining activity at 1 µM (HsCdk5/p25) | remaining activity at 1 µM (HsHaspin) | remaining activity at 1 µM (HsPIM1) | remaining activity at 1 µM (HsCdk2/Cyc A) | remaining activity (RnDYRK1A) | melting point | Selectivity index CLK1/Haspin (MmCLK1) | IC50 (MmCLK1) | IC50 (HsHaspin) | Selectivity index DYRK/Haspin (RnDYRK1A) | IC50 (RnDYRK1A) | SMILES |
| --- | --- | --- | --- | --- | --- | --- | --- | --- | --- | --- | --- | --- | --- | --- |
| 49% | 51% | 55% | 55% | 59% | 48% | 62% | 55% | 235 to 237 °C |  |  |  |  |  | COc1ccc2c(c1)[nH]c1c(=O)[nH]c3ccccc3c12 [Compound 58, 9-Methoxy-5,7-dihydro-6H-indolo[2,3-c]quinolin-6-one] |
| 12% | 41% | 41% | 51% | 13% | 34% | 74% | 21% | 235 to 237 °C | 3 | 94 nM | 30 nM | 2 | 73 nM | COc1ccc2c(c1)[nH]c1c(=O)[nH]c3ccc(OC)cc3c12 [Compound 59, 2,9-Dimethoxy-5,7-dihydro-6H-indolo[2,3-c]quinolin-6-one] |
| 31% | 100% | 100% | 100% | 9% | 100% | 97% | 44% | 135 to 136 °C | 6 | 122 nM | 19 nM | 8 | 143 nM | COc1ccc2[nH]c(=O)c3[nH]c4ccc(F)cc4c3c2c1 [Compound 60, 10-Fluoro-2-methoxy-5,7-dihydro-6H-indolo[2,3-c]quinolin-6-one] |
| 0% | 31% | 6% | 22% | 0% | 75% | 31% | 2% | > 250 °C | 7 | 124 nM | 18 nM | 7 | 131 nM | COc1ccc2c(c1)c1c3cc(O)ccc3[nH]c(=O)c1n2C [Compound 62, 2-Hydroxy-10-methoxy-7-methyl-5,7-dihydro-6H-indolo[2,3-c]quinolin-6-one] |
| 19% | 44% | 45% | 68% | 51% | 42% | 67% | 29% |  |  |  |  |  |  | COc1ccc2c(c1)c1c3cc(C(F)(F)F)ccc3[nH]c(=O)c1n2C [Compound 63, 10-Methoxy-7-methyl-2-(trifluoromethyl)-5,7-dihydro-6H-Indolo[2,3-c]quinolin-6-one] |
